Results taken from patent publication US20260217646A1, “SPERMINE DERIVATIVE AND THERAPEUTIC USE THEREOF FOR DISEASES” (Institute of Basic Medical Sciences, Chinese Academy of …, priority 2022, published 2026).

Legend:
NFAT = test: Jurkat-Lucia NFAT reporter gene assay; type: cell-based, human; settings: Jurkat-Lucia NFAT cells; 10 μM SD1 pretreatment 3 hours; PMA 50 ng/ml and ionomycin 300 ng/ml for 24 hours (FIG. 4B)
Protocol: Jurkat-Lucia NFAT reporter cell line was purchased from invivogen and cultured in RPMI1640 medium containing 10% FBS. The cells were pretreated with 10 μM SD1 for 3 hours. For the control group cells (at a dose of 0), an equal volume of DMSO was added to the medium. Subsequently, PMA (50 ng/ml) and ionomycin (300 ng/ml) were used to stimulate for 24 hours. The cell culture supernatant was obtained. Meanwhile, the luciferase substrate powder was dissolved in 25 ml of deionized water under dark conditions, aliquoted and stored at −80° C. for the preparation of the luciferase substrate. 20 μl of the culture supernatant was transferred to a Luciferase specific 96-well ELISA plate, and detected using Thermo VARIOSKAN FLASH microplate-reader (FIG. 4B).

[1] = system: interferon-stimulated genes (ISGs) Ifit1 and Mx1; test: qPCR of interferon-stimulated gene mRNAs in mouse primary peritoneal macrophages after mIFN-β stimulation; type: cell-based; settings: 10 μM SD1 pretreatment 3 hours, mIFN-β 500 μg/ml for 3 hours, qPCR (FIG. 1B)
Protocol: 2 ml of 3% mercaptoacetate (dissolved in double distilled water at a ratio in % by m/v, and then subjected to high-pressure sterilization treatment) was injected into C57BL/6 mice (6-8 weeks old, male) intraperitoneally. After 3 days, mouse primary peritoneal macrophages (PMs) were isolated from the C57BL/6 mice and cultured in endotoxin-free high-glucose DMEM medium containing 10% FBS.
The next day, the medium was replaced by fresh complete medium, and the cells were pretreated with 10 μM SD1 for 3 hours. For the control group cells (at a dose of 0), an equal volume of DMSO was added to the medium. Afterwards, the cells were stimulated with mIFN-β (at a dose of 500 μg/ml) for 3 hours, and RNAs were subsequently extracted for reverse transcription. The contents of mRNAs (including Ifit1 and Mx1) of interferon-stimulated genes (ISGs) were detected and analyzed by fluorescence quantitative PCR (qPCR) method using commercial primers and conditions recommended by manufacturers (FIG. 1B).

[2] = system: ISG promoter in RAW264.7 cells; test: ISG promoter-reporter (luciferase) assay in RAW264.7 cells under mIFN-β stimulation; type: cell-based, mouse; settings: 10 μM SD1 pretreatment 3 hours; mIFN-β 1 ng/ml for 7 hours; luciferase in supernatant (FIG. 1A)
Protocol: The RAW264.7 cell line with ISG promoter-reporter gene was purchased from Invivogen and cultured in DMEM containing 10% fetal bovine serum (FBS). The cells were pretreated with 10 μM SD1 for 3 hours. A concentrated solution of the above-mentioned SD1 was freshly formulated in DMSO at a concentration of 20 mM before each use, and subsequently diluted as needed. Afterwards, the cells were stimulated with recombinant mouse interferon-beta (mIFN-β) at a dose of 1 ng/ml for 7 hours, and the cell culture supernatant was obtained. Meanwhile, the luciferase substrate powder was dissolved in 25 ml of deionized water under dark conditions, aliquoted, and stored at −80° C. for preparation of the luciferase substrate. 20 μl of the culture supernatant was transferred to a Luciferase specific 96-well ELISA plate, and detected using Thermo VARIOSKAN FLASH microplate-reader (FIG. 1A).

[3] = system: Human T-lymphocytic leukemia Jurkat cells (IL-2 secretion); test: IL-2 ELISA in PMA/ionomycin-activated Jurkat cells; type: cell-based; settings: 10 μM SD1 pretreatment 3 hours; PMA 50 ng/ml and ionomycin for 24 hours; ELISA (FIG. 4A)
Protocol: Human T-lymphocytic leukemia Jurkat cells were cultured in RPMI1640 medium containing 10% FBS. The cells were pretreated with SD1 at a dose of 10 μM for 3 hours. For the control group cells (at a dose of 0), an equal volume of DMSO was added to the medium. Subsequently, the cells were continued to be stimulated with phorbol ester (PMA, 50 ng/ml) and ionomycin ([…]) for 24 hours. The cell culture supernatant was collected, and the level of IL-2 was detected using enzyme linked immunosorbent assay (ELISA) (FIG. 4A).

[4] = system: JAK-STAT signaling pathway (IFN-β mediated); test: Western blot of type I interferon signaling pathway activation in mouse primary peritoneal macrophages stimulated with mIFN-β; type: cell-based; settings: 10 μM SD1 pretreatment 3 hours, mIFN-β 500 μg/ml for different time periods, Western blot (FIG. 2A)
Protocol: PMs were obtained using the method as described in Example 2 and cultured in endotoxin-free high-glucose DMEM medium containing 10% FBS. The cells were pretreated with 10 μM SD1 for 3 hours. For the control group cells (at a dose of 0), an equal volume of DMSO was added to the medium. Afterwards, the cells were stimulated with mIFN-β (at a dose of 500 μg/ml) for different time periods. Subsequently, total cellular proteins were extracted, and the activation of the type I interferon signaling pathway was detected using Western blot (FIG. 2A).

[5] = system: JAK-STAT signaling pathway (IL-2 mediated); test: Western blot of signaling pathway activation in mouse spleen cells stimulated with IL-2; type: cell-based; settings: 10 μM SD1 pretreatment 3 hours, IL-2 10 ng/ml for different time periods, Western blot (FIG. 2B)
Protocol: Mouse spleen single cells were isolated from spleens of the male mice 6-8 weeks old, and the cells freshly obtained were cultured in RPMI1640 medium containing 10% FBS, non-essential amino acids, and β-mercaptoethanol. The cells were pretreated with 10 μM SD1 for 3 hours. For the control group cells (at a dose of 0), an equal volume of DMSO was added to the medium. Subsequently, the cells were stimulated with 10 ng/ml recombinant mouse interleukin-2 (IL-2) for different time periods. The cells were collected, total cellular proteins were extracted, and the activation of the type I interferon signaling pathway was detected using Western blot (FIG. 2B).

[6] = system: ISG genes in peripheral blood cells of SLE model mice; test: ISG expression in peripheral blood cells of pristane-induced SLE model mice; type: in vivo, mouse; settings: C57 female mice; SD1 10 mg/kg intraperitoneal once a day for 5 days before pristane; blood on days 4 and 6 (FIG. 3A to 3C)
Description: Lupus-like symptoms similar to those in human patients were induced in mice by the hydrocarbon compound pristane (also referred as norphytane, 2,6,10,14-tetramethylpentadecane) (Zhuang et al., Animal Models of Interferon Signature Positive Lupus. Front Immunol. 2015. 6: p. 291; Nacionales, D. C et al. (2006). Type I interferon production by tertiary lymphoid tissue developing in response to 2,6,10,14-tetramethyl-pentadecane (pristane). The American journal of pathology 168, 1227-1240; Reeves, W. H et al. (2009). Induction of autoimmunity by pristane and other naturally occurring hydrocarbons. Trends Immunol. 30, 455-464). […] It is a recognized model that is able to simulate the overexpression of type I interferon in SLE patients, which can aid in elucidating the pathogenesis of SLE and finding therapeutic targets.
Firstly, C57 female mice were pretreated by intraperitoneal injection of PBS and SD1 (10 mg/kg, once a day, for 5 consecutive days). Subsequently, SLE mice were induced by intraperitoneal injection of pristane (500 μl/mouse). On days 4 and 6 after the injection of pristane, blood was collected from the eye-fundus vascular plexus, and total RNA was obtained from the peripheral blood by using Trizol to detect the effect of spermine on the early type I interferon effect of pristane-induced mice.

Compound: CC(C(=O)NCCCNCCCCNCCCNC(=O)C(C)(c1ccccc1)c1ccccc1)(c1ccccc1)c1ccccc1 [SD1]
- transcriptional activity of NFAT (reporter gene activity) (NFAT): effectively inhibits
- expression of Ifit1 mRNA downstream of type I interferon [1]: reduce
- expression of Mx1 mRNA downstream of type I interferon [1]: reduce
- activity of ISG promoter in RAW264.7 cells [2]: effectively inhibit
- IL-2 secretion level of activated Jurkat cells [3]: effectively inhibit
- activation of the JAK-STAT signaling pathway mediated by IFN-β (levels of p-JAK1, p-TYK2, p-STAT1/2) [4]: effectively inhibit
- activation of the JAK-STAT signaling pathway mediated by IL-2 (levels of p-JAK1, p-TYK2, p-STAT1/2) [5]: effectively inhibit
- ISG expression (Ifit1, Isg15, Rsad2) in peripheral blood cells of SLE model mice [6]: inhibit
